# Source: patent US20210401863A1, “TREATMENT AND PREVENTION OF NEISSERIA GONORRHOEAE INFECTION USING CMP-ACTIVATED NONULOSONATE ANALOG COMPOUNDS” (NATIONAL RESEARCH COUNCIL OF CANADA, priority 2015, published 2021)
# Read-outs that look alike come from different tables or passages of the source.
# Key:
# [1] = target: T1, gonococcal LOS sialyltransferase (Lst) (Neisseria gonorrhoeae, UniProt P72074); test: mAb 3F11 binding by flow cytometry (incorporation of NulO on LNnT LOS by Lst); assay type: cell-based, N. gonorrhoeae F62 ΔlgtD; details: F62 ΔlgtD grown in media with 20 μg/mL CMP-NulO
# T1 construct: CMP-KDN served as a substrate for gonococcal Lst in the context of live bacteria; endogenous in cells; host or cells: N. gonorrhoeae F62 ΔlgtD (live bacteria)
# Experimental: FIG. 1: CMP-KDN serves as a substrate for gonococcal LOS and incorporation of KDN on gonococcal lacto-N-neotetraose LOS enhances factor H (FH) binding. A. Incorporation of KDN by gonococci. Gonococcal strain F62 ΔlgtD (expresses lacto-N-neotetraose (LNnT) from Hepl) was grown in media containing CMP-KDN (20 μg/mL) and binding of mAb 3F11 was measured by flow cytometry. mAb 3F11 binds only to […] LNnT; substitution of the terminal Gal of LNnT, for example with a NulO, will decrease mAb 3F11 binding. Approximately 5×10^7 bacteria were incubated with mAb 3F11 tissue culture supernatants for 15 minutes at 37° C. Binding of mAb 3F11 was disclosed with anti-mouse IgM FITC (Sigma; dilution of 1:100). Bacteria grown in CMP-Neu5Ac or in media alone were used as positive and negative controls for sialylation, respectively. A representative histogram is shown in the upper panel. […] B. Factor H (FH) binding to gonococci grown in CMP-KDN. Approximately 5×10^7 bacteria grown in media alone (no sialic acid), media plus CMP-Neu5Ac (20 μg/mL; positive control for FH binding) or in media containing CMP-KDN (20 μg/mL) were incubated with purified human FH (20 μg/mL) in HBSS** for 15 minutes at 37° C. and bound FH was detected with affinity isolated goat anti-human FH followed by anti-goat IgG FITC (Sigma; 1:100 dilution). A representative histogram is shown in the upper panel.
# FIG. 3: CMP-KDN7N3 serves as a substrate for gonococcal Lst resulting in incorporation of KDN7N3 on gonococcal lacto-N-neotetraose (LNnT) LOS—Incorporation of KDN7N3 by gonococci. Gonococcal strain F62ΔlgtD (expresses lacto-N-neotetraose (LNnT) from Hepl) was grown in media containing CMP-KDN7N3 (20 μg/mL) and binding of mAb 3F11 was measured by flow cytometry. mAb 3F11 binds only to […] LNnT; substitution of the terminal Gal of LNnT, for example with a NulO, will decrease mAb 3F11 binding. Approximately 5×10^7 bacteria were incubated with mAb 3F11 tissue culture supernatants for 15 minutes at 37° C. Binding of mAb 3F11 was disclosed with anti-mouse IgM FITC (Sigma; dilution of 1:100). […]
# N. gonorrhoeae F62 ΔlgtD = assay type: cell-based, Neisseria gonorrhoeae
# Experimental: Generally, bacteria (F62 ΔlgtD) grown overnight on chocolate agar plates were suspended in gonococcal liquid media supplemented with IsoVitaleX [29] that contained specified concentrations of the CMP-nonulosonate. Bacteria were then incubated at 37° C. for the period specified in each experiment.
# Serum bactericidal assays were performed as follows, similar to methods outlined in [32,33] and in U.S. Pat. No. 9,765,106. Bacteria were harvested from an overnight culture on chocolate agar plates and ˜10^5 CFU of Ng were grown in liquid media containing the concentrations of CMP-NuIO as specified for each experiment. Bacteria were diluted in Morse A and ˜2000 CFU of Ng F62 ΔlgtD were incubated with NHS (concentration specified for each experiment). The final reaction volumes were maintained at 150 μL. Aliquots of 25 μL of reaction mixtures were plated onto chocolate agar in duplicate at the beginning of the assay (t0) and again after incubation at 37° C. for 30 minutes (t30). Survival was calculated as the number of viable colonies at t30 relative to t0.
# Addition of a terminal Neu5Ac residue to the LNnT LOS of N. gonorrhoeae that occurs in vivo or following the addition of CMP-Neu5Ac to growth media results in resistance to complement-dependent killing. We next determined the effects of LNnT incorporation of KDN on the ability of N. gonorrhoeae F62 ΔlgtD to resist complement-dependent killing by normal human sera at concentrations of 3.3% or 10%. Bacteria were grown either in media alone, or media supplemented with 20 μg/mL of CMP-Neu5Ac or CMP-KDN. In addition, CMP-NulO competition experiments were also performed with CMP-Neu5Ac, CMP-Leg5Ac7Ac and CMP-KDN at CMP-NulO concentrations of either 20 μg/mL or 2 μg/mL as indicated, where the second CMP-NulO was added 15 minutes after the first (Table 1 below). To note, these CMP-NulO competition experiments are a method to examine the ability of select CMP-NulOs to counter the enhanced serum resistance due to CMP-Neu5Ac addition, providing information on their therapeutic potential (as any potential therapeutic will be required to compete with CMP-Neu5Ac in vivo).
# T1 sequence (P72074 whole entry): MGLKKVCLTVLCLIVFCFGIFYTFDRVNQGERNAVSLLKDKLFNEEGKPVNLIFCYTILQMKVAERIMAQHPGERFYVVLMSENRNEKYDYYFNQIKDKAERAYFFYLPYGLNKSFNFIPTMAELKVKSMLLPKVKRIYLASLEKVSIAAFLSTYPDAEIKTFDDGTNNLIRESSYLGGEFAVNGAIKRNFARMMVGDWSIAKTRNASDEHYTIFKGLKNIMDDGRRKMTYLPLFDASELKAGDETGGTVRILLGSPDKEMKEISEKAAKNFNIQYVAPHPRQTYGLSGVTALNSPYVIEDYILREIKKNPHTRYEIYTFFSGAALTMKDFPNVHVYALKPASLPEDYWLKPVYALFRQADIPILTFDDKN
compound,measurement,setting,value
"Nc1ccn([C@@H]2O[C@H](COP(=O)(O)O[C@@]3(C(=O)O)CC(O)[C@@H](O)C([C@H](O)[C@H](O)CO)O3)C(O)C2O)c(=O)n1 (stereo partly drawn) [CMP-KDN, cytidine 5′-monophospho-3-deoxy-D-glycero-D-galacto-nonulosonic acid]",binding of mAb 3F11 (use as substrate by gonococcal Lst),[1],decreased binding of mAb 3F11 similarly
same,% survival in 3.3% serum,"N. gonorrhoeae F62 ΔlgtD; CMP-Neu5Ac (20 μg/mL) first, labelled CMP-NulO (20 μg/mL) added 15 minutes later, 3.3% serum",107%
same,% survival in 10% serum,"N. gonorrhoeae F62 ΔlgtD; CMP-Neu5Ac (20 μg/mL) first, labelled CMP-NulO (20 μg/mL) added 15 minutes later, 10% serum",108%
same,serum resistance (in words),"N. gonorrhoeae F62 ΔlgtD; CMP-NulO alone, 3.3% serum",complete serum resistance was observed
same,serum sensitivity (in words),"N. gonorrhoeae F62 ΔlgtD; CMP-NulO alone, 10% serum",serum sensitivity was observed
same,"countering of serum resistance mediated by CMP-Neu5Ac (competition, in words)","N. gonorrhoeae F62 ΔlgtD; CMP-NulO competition, second CMP-NulO 15 minutes after the first, 3.3% and 10% serum",could only counter CMP-Neu5Ac induced serum resistance if it was provided before CMP-Neu5Ac
same,% survival in 3.3% serum,"N. gonorrhoeae F62 ΔlgtD; Table 1, CMP-NulO 20 μg/mL alone, 3.3% serum",110%
same,% survival in 10% serum,"N. gonorrhoeae F62 ΔlgtD; Table 1, CMP-NulO 20 μg/mL alone, 10% serum",11%
same,% survival in 3.3% serum,"N. gonorrhoeae F62 ΔlgtD; labelled CMP-NulO (20 μg/mL) first, CMP-Neu5Ac (2 μg/mL) added 15 minutes later, 3.3% serum",107%
same,% survival in 10% serum,"N. gonorrhoeae F62 ΔlgtD; labelled CMP-NulO (20 μg/mL) first, CMP-Neu5Ac (2 μg/mL) added 15 minutes later, 10% serum",10%
same,% survival in 3.3% serum,"N. gonorrhoeae F62 ΔlgtD; labelled CMP-NulO (20 μg/mL) first, CMP-Neu5Ac (20 μg/mL) added 15 minutes later, 3.3% serum",107%
same,% survival in 10% serum,"N. gonorrhoeae F62 ΔlgtD; labelled CMP-NulO (20 μg/mL) first, CMP-Neu5Ac (20 μg/mL) added 15 minutes later, 10% serum",11%
